In PMC11352859, “Functionalized Congeners of 2H-Chromene P2Y6 Receptor Antagonists” (Cells, 2024):
Values joined by “and” are separate entries in the source; they are usually repeats but may differ in a detail not shown here. Equal entries are not always repeated. Where two headings read alike, the source gives them in different places.

What was measured:
rP2Y6 = settings: Figure 1; ref [33]; cited from earlier work
P2Y6R = P2Y6R agonist; no reference given; read-out: EC50 in PLC activation; cited from earlier work
hP2Y6R = target: T1, hP2Y6R (Homo sapiens, UniProt Q15077); assay: UDP (100 nM)-induced Ca2+ mobilization in hP2Y6R stably transfected 1321N1 astrocytoma cells; type: cell-based; settings: for IC50: UDP 100 nM, 3–4 independent triplicate determinations, read-out: IC50, hP2Y6R (Mean ± SEM)
T1 construct: expressed in transfected cells
Procedure: To screen for P2Y6R antagonist activity, PLC-mediated calcium mobilization assays were carried out using the recombinant human P2Y6R stably expressed in 1321N1 astrocytoma cells (hP2Y6R-1321N1) according to the previously published method. Briefly, the hP2Y6R-1321N1 cells were seeded on 96-well black plates and incubated overnight. The antagonists were pretreated along with the FLIPR dye (Calcium 6 assay kit, Molecular Devices, San Jose, CA, USA) containing 5 mM probenecid for 45 min, prior to agonist addition followed by an immediate intracellular Ca^2+ measurement. […] Here, probenecid was used as an organic anion transporter inhibitor to prevent the efflux of the dye into the extracellular environment. During incubation, the membrane permeable dye enters the cytoplasm and cleaves the acetoxymethyl protection to enable Ca^2+ binding. When the P2Y6R was activated by UDP, the increased calcium concentration was directly measured by intracellular changes in the fluorescence intensity with a Fluorescent Imaging Plate Reader (FLIPR^TETRA, Molecular Devices, San Jose, CA, USA).

hP2Y14R = target: T2, hP2Y14R (Homo sapiens, UniProt Q15391); assay: whole-cell binding of fluorescent antagonist MRS4174 in CHO-hP2Y14R cells (flow cytometry); settings: for IC50: CHO-hP2Y14, competitive binding, flow cytometer
T2 construct: expressed in transfected cells
T2 sequence (Q15391 1-338): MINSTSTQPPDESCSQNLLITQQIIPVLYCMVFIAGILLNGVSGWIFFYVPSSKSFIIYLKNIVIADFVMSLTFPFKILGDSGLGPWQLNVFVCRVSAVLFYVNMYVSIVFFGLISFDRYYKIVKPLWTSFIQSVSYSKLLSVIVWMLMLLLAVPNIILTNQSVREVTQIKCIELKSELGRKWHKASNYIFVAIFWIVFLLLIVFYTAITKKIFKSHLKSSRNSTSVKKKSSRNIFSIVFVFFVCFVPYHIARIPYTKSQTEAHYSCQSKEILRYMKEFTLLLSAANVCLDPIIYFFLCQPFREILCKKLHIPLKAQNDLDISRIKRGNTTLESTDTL

α2A [1] = target: T3, α2A (Homo sapiens, UniProt P08913); assay: PDSP binding assay, α2A
T3 construct: NIMH Psychoactive Drug Screening Program (PDSP)
T3 sequence (P08913 1-465): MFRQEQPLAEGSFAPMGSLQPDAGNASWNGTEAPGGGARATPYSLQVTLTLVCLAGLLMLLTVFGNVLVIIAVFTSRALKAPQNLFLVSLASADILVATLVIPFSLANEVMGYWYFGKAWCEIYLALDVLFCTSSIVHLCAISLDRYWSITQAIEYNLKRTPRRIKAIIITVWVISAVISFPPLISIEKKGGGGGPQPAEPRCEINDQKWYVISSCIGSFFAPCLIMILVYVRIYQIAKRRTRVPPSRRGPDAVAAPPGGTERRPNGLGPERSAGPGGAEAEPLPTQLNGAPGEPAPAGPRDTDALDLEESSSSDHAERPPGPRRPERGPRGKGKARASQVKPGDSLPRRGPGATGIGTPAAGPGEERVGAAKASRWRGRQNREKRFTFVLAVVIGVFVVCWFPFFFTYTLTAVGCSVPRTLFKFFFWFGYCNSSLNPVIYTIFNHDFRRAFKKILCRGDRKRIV
From the text: (§1) Table S2. Off-target screening (to replace table later). We thank Dr. Bryan L. Roth (Univ. North Carolina at Chapel Hill) and National Institute of Mental Health's Psychoactive Drug Screening Program (Contract # HHSN-271-2008-00025-C) for screening data. Reference: Besnard et al.
(§2) Procedures: https://pdsp.unc.edu/pdspweb/content/UNC-CH%20Protocol%20Book.pdf […]
(§3) nucleosides were found at the following sites (human unless noted): 5HT1A, 5HT1B, 5HT1D, […]
(§4) β3, BZP rat brain site, D1, D2, D3, D4, D5, GABAA, H1, H2, H3, H4, M1, M2, M5, δ-opioid receptor (DOR), κ-opioid receptor (KOR), μ-opioid receptor (MOR), σ1, σ2, DAT, NET, SERT. Ki values […]
(§5) Compound # PDSP # Receptor LogKi Ki (nM)

α2B = target: T4, α2B (Homo sapiens, UniProt P18089); assay: PDSP binding assay, α2B; settings: mean, n = 2
T4 construct: NIMH Psychoactive Drug Screening Program (PDSP)
T4 sequence (P18089 1-450): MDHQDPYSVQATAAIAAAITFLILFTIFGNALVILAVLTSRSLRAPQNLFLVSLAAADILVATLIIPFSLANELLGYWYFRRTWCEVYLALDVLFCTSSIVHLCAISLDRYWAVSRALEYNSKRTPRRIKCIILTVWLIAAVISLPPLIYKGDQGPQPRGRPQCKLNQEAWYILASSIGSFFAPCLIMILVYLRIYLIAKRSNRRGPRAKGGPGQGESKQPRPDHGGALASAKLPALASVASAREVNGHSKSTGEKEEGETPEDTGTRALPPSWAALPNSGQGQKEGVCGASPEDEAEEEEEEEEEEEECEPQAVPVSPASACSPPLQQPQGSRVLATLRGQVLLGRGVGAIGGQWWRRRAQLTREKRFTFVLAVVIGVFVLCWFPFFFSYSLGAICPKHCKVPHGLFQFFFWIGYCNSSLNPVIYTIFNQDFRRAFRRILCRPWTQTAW
From the text: as §1, §2, §3, §4, §5

D5 = target: T5, D5 (Homo sapiens, UniProt P21918); assay: PDSP binding assay, D5
T5 construct: NIMH Psychoactive Drug Screening Program (PDSP)
From the text: as §1, §2, §3, §4, §5

H1 = target: T6, H1 (Homo sapiens, UniProt P35367); assay: PDSP binding assay, H1
T6 construct: NIMH Psychoactive Drug Screening Program (PDSP)
From the text: as §1, §2, §3, §4, §5

5-HT1D = target: T7, 5-HT1D (Homo sapiens, UniProt P28221); assay: PDSP binding assay, 5-HT1D
T7 construct: NIMH Psychoactive Drug Screening Program (PDSP)
From the text: as §1, §2, §3, §4, §5

[2] = tested on: 45 target sites (receptors, channels, and transporters); assay: PDSP off-target binding screen at 45 target sites; parameters: species or system human; settings: PDSP binding assays
From the text: as §1, §2, §3, §4, §5

HeLa cells = assay: MTT cell viability assay, HeLa cells; type: cell-based, human; settings: for % survival: 12 h, MTT
Procedure: (§6) The 1321N1 astrocytoma (hP2Y6R-overexpressing) and HeLa (non-transfected) cell lines were cultured in Dulbecco’s modified Eagle’s medium (DMEM, HyClone, Logan, UT, USA) supplemented with 5% heat-inactivated fetal bovine serum (FBS, HyClone, UT, USA), 100 U/mL penicillin, and 100 µg/mL streptomycin in 5% CO2 at 37 °C. The cell viability was determined using an MTT kit (Sigma, St. Louis, MO, USA) according to the manufacturer’s instructions. Briefly, 1 × 10^4 cells were seeded in triplicate in 96-well plates. The hP2Y6R-astrocytoma and HeLa cells were treated with a P2Y6R agonist and antagonists at a range of concentrations and incubated for 12 h. The cell viability was measured at 490 nm using a SpectraMax-M5 Spectrometer (Molecular Devices, San Jose, CA, USA).

[3] = tested on: hP2Y6R-1321N1 human astrocytoma cells; assay: MTT cell viability assay, hP2Y6R-1321N1 astrocytoma cells; type: cell-based; settings: for % survival: P2Y6R-astrocytoma, 12 h, MTT
Procedure: as §6

mP2Y6 = tested on: mP2Y6; parameters: method as in PMID 37078976; settings: Figure 1; ref [33]; cited from earlier work
D1 = target: T8, D1 (Homo sapiens, UniProt P21728); assay: PDSP binding assay, D1
T8 construct: NIMH Psychoactive Drug Screening Program (PDSP)
From the text: as §1, §2, §3, §4, §5

α2A [4] = target: T3, α2A; parameters: method as in Jung et al., 2021 and 2022 [30],[40]; settings: PDSP; ref Jung et al., 2021 and 2022 [30],[40]; cited from earlier work
other P2YRs = settings: at high µM concentrations; ref [29],[43]; cited from earlier work
α2C = target: α2C; parameters: method as in Jung et al., 2021 and 2022 [30],[40]; settings: PDSP; ref Jung et al., 2021 and 2022 [30],[40]; cited from earlier work
µ-opioid receptor (MOR) = target: µ-opioid receptor (MOR); parameters: method as in Jung et al., 2021 and 2022 [30],[40]; settings: PDSP; ref Jung et al., 2021 and 2022 [30],[40]; cited from earlier work
[5] = PDSP, mean, n = 2, read-out: Ki, α2A
[6] = PDSP, mean, n = 2, read-out: Ki, D5
[7] = PDSP, mean, n = 2, read-out: Ki, H1
[8] = PDSP, mean, n = 2, read-out: Ki, 5-HT1D

T5 sequence (P21918 whole entry): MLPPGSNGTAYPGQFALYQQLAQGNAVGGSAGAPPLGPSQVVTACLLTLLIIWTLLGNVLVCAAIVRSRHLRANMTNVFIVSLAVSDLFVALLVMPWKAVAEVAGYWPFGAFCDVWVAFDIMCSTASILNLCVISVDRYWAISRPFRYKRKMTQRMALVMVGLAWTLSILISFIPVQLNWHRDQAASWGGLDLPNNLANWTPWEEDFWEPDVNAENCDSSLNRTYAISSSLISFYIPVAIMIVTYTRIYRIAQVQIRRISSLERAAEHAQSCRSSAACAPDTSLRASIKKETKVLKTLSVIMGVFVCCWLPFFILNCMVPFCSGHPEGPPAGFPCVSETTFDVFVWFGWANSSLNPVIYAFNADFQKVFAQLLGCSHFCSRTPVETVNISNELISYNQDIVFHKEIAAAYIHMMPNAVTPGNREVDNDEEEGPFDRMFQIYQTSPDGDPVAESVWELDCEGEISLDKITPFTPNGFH
T7 sequence (P28221 whole entry): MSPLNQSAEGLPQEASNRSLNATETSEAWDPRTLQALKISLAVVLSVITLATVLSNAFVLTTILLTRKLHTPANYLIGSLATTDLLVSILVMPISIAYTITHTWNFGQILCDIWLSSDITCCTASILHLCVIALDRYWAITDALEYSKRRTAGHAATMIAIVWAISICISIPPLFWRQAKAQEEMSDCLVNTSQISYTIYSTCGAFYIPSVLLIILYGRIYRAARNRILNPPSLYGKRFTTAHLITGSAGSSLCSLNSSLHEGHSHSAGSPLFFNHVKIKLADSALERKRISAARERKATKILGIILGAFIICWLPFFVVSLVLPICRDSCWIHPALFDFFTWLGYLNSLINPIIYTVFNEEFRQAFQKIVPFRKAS
T6 sequence (P35367 whole entry): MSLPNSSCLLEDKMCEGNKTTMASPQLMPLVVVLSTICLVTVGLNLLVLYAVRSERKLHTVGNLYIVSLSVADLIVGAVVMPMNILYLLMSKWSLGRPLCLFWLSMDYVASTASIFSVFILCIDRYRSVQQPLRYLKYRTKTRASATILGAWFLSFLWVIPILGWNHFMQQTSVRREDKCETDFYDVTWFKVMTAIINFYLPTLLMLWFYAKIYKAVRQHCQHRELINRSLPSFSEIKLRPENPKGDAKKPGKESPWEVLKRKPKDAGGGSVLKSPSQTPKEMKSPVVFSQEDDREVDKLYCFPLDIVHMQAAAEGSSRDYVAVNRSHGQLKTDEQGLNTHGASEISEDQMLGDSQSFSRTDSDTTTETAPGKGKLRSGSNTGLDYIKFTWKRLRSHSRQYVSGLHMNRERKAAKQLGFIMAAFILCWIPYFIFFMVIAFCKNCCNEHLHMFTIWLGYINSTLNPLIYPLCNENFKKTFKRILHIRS
T1 sequence (Q15077 whole entry): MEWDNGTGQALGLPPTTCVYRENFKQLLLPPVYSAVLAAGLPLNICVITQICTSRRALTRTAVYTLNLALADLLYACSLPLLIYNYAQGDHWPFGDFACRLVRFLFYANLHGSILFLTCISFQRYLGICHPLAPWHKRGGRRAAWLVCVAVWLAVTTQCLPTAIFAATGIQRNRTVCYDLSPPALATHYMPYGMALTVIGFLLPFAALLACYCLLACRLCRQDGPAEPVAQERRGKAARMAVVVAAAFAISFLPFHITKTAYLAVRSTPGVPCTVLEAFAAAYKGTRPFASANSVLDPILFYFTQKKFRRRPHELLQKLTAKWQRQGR
T8 sequence (P21728 whole entry): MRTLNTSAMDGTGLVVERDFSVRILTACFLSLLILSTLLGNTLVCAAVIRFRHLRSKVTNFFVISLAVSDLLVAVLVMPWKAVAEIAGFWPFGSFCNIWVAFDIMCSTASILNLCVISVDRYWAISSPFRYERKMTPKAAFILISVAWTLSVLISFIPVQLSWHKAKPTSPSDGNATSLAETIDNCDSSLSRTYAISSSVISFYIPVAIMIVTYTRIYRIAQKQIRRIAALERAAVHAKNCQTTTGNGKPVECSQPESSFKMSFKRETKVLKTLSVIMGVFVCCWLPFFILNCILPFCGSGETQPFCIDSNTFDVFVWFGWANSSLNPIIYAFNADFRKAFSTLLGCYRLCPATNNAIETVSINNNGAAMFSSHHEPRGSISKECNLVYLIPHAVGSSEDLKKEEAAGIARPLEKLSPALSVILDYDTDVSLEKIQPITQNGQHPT

SMILES: S=C=Nc1cccc(NC(=S)NCCCCNC(=S)Nc2cccc(N=C=S)c2)c1 [Compound 1]
- IC50 (rP2Y6): 98 nM

SMILES: O=c1ccn([C@@H]2O[C@H](COP(=O)(O)OP(=O)(O)O)[C@@H](O)[C@H]2O)c(=O)[nH]1 [UDP, uridine 5′-diphosphate]
- EC50 (P2Y6R): 13 nM

SMILES: CC(C)(C)OC(=O)NCCCCCCCC#Cc1cccc2c1OC(C(F)(F)F)C([N+](=O)[O-])=C2 (stereo not shown) [Compound 37]
- IC50 (hP2Y6R): 4960 ± 1960 nM
- fold lower affinity compared to 30 (hP2Y6R; hP2Y6R IC50 ratio): 31 fold
- IC50 (hP2Y14R): 31200 ± 12200 nM
- Ki (α2A [1]; [5]): 5200 nM
- Ki (α2B): 4800 nM
- Ki (D5; [6]): 4200 nM
- Ki (H1; [7]): 7300 nM
- Ki (5-HT1D; [8]): 3500 nM

SMILES: O=[N+]([O-])C1=Cc2cc(F)cc(F)c2OC1C(F)(F)F (stereo not shown) [Compound 2b]
- off-target interactions at 45 target sites [2]: no off-target interactions and none
- % survival (HeLa cells; 0.1 µM): 87%
- % survival (HeLa cells; 0.5 µM): 86%
- % survival (HeLa cells; 1 µM): 87%
- % survival (HeLa cells; 5 µM): 84%
- % survival (HeLa cells; 10 µM): 78%
- inhibition of viability (HeLa cells; at 10 µM, 12 h exposure): 22%
- % survival ([3]; 0.1 µM): 104%
- % survival ([3]; 0.5 µM): 104%
- % survival ([3]; 1 µM): 105%
- % survival ([3]; 5 µM): 98%
- % survival ([3]; 10 µM): 88%
- inhibition of viability ([3]; hP2Y6R-1321N1 cells, at 10 µM, 12 h exposure): 12%
- IC50 (mP2Y6): 17800 nM

SMILES: CC(C)(C)OC(=O)NCCCCC#Cc1ccc2c(c1)C=C([N+](=O)[O-])C(C(F)(F)F)O2 (stereo not shown) [Compound 24, tert-Butyl (6-(3-nitro-2-(trifluoromethyl)-2H-chromen-6-yl)hex-5-yn-1-yl)carbamate]
- IC50 (hP2Y6R): 568 ± 163 nM
- IC50 (hP2Y14R): 5600 ± 700 nM
- fold selective compared to the hP2Y14R (hP2Y14R; hP2Y6R vs hP2Y14R): 10 fold
- Ki (α2A [1]; [5]): 160 nM
- Ki (α2A [1]; Table S2, single determinations, read-out: Ki (nM), Alpha2A): 148 nM and 168 nM
- Ki (α2B): 460 nM
- Ki (D1; PDSP, mean, n = 2, read-out: Ki, D1): 1900 nM
- Ki (D1; Table S2, single determination, read-out: Ki (nM), D1): 1600 nM
- Ki (D5; [6]): 2400 nM
- Ki (D5; Table S2, single determinations, read-out: Ki (nM), D5): 1360 nM and 3420 nM
- Ki (H1; [7]): 1000 nM
- Ki (H1; Table S2, single determinations, read-out: Ki (nM), H1): 631 nM and 1430 nM
- Ki (5-HT1D; [8]): 3200 nM
- Ki (5-HT1D; Table S2, single determinations, read-out: Ki (nM), 5-HT1D): 3260 nM and 3040 nM

SMILES: O=c1[nH]c(=O)n([C@@H]2O[C@H](COP(=O)(O)OP(=O)(O)O)[C@@H](O)[C@H]2O)cc1I [MRS2693, 5-iodouridine-5′-O-diphosphate, reference compound]
- % survival (HeLa cells; 1 µM): 105%
- % survival (HeLa cells; 5 µM): 106%
- % survival (HeLa cells; 10 µM): 104%
- % survival ([3]; 1 µM): 98%
- % survival ([3]; 5 µM): 100%
- % survival ([3]; 10 µM): 101%
- effect on viability ([3]; astrocytoma cells, ≤10 µM, 12 h exposure): no significant effect
- EC50 (P2Y6R): 15 nM

SMILES: CC(C)(C)C(=O)NCCCCCCCC#Cc1ccc2c(c1)C=C([N+](=O)[O-])C(C(F)(F)F)O2 (stereo not shown) [Compound 31]
- IC50 (hP2Y6R): 17300 ± 5200 nM
- off-target interactions at 45 target sites [2]: only two weak interactions
- Ki (α2A [1]; [5]): 3500 nM

SMILES: CC[Si](C#Cc1ccc2c(c1)C=C([N+](=O)[O-])C(C(F)(F)F)O2)(CC)CC (stereo not shown) [Compound 13]
- IC50 (hP2Y6R): 604 ± 239 nM
- Ki (α2A [4]): 2000 nM
- inhibition at most other P2YRs (other P2YRs): minor

SMILES: O=C(O)c1ccc(C#Cc2ccc3c(c2)C=C([N+](=O)[O-])C(C(F)(F)F)O3)cc1 (stereo not shown) [Compound 17]
- Ki (α2C): 2600 nM
- Ki (µ-opioid receptor (MOR)): 4200 nM
- inhibition at most other P2YRs (other P2YRs): minor
